Results reported in US20050170028A1, “Polysaccharide extract from Lycium barbarum as neuroprotective agent against beta-amyloid peptide neurotoxicity” (priority 2004, published 2005).

What was measured:
Assay type in all cases: cell-based
caspase-3 = assay: colorimetric caspase-3 activity assay in neurons exposed to Aβ-peptide
Experimental: Caspase-3 has long been regarded as an index for neuronal apoptosis. Therefore, the colorimetric caspase-3 activity assay was performed at the concentrations stated in FIG. 5, and neuronal apoptosis was determined by the colorimetric caspase-3 activity assay by measuring the absorbance (at 405 nm) of the yellow product (pNA) cleaved from the substrate. Results (***p<0.001 vs. the group treated with Aβ-peptide alone, by one-way ANOVA, Tukey test) are expressed as mean±SE from at least three independent experiments.
Caspase-3 is a general apoptosis marker. For apoptosis analysis, the colorimetric caspase-3 activity assay (at 405 nm) was performed.
It is also a well-known Western medicine for the treatment of manic-depressive bi-polar disorder. […] Neurons were pretreated with either LiCl (2 mM to 20 mM) or LBA (0.1 μg/ml to 500μ/ml) for 1 hour, and then exposed to Aβ25-35 peptide (25 μM) for 24 hours. Caspase-3 activity assay was used to determine the protective effects against Aβ-peptide toxicity. […] The unit of concentration of LiCl was converted from mM to μ/ml for the purpose of comparison with LBA. […] The toxicity decreased when the concentration of LiCi increased and it reached the lowest value (8.5%) when LiCi was used at 850 μ/ml (20 mM). Accordingly, LiCl could effectively reduce Aβ-peptide-stimulated caspase-3 activity in the range of 340 μg/ml to 850 μg/ml (i.e. 8 mM to 20 mM). LBA exerted protective effects for neurons against Aβ-peptide toxicity from very low concentration to high concentration (0.1 μg/ml to 500 μg/ml).
It has been reported that specific inhibitor of JNK, SP600125, also exerts protection for neurons against Aβ-peptide toxicity. We therefore compared the therapeutic window of SP600125 with LBA to elucidate their effectiveness in neuroprotection. Neurons were pretreated with either SP600125 (5 μM to 20 μM) or LBA (0.1 μg/ml to 500 μg/ml) for 1 hour, and then exposed to Aβ-peptide (25 μM) for 16 hours. Caspase-3 activity assay was done to investigate their protective effects against Aβ-peptide toxicity. Thus, after treatment, colorimetric caspase-3 activity assay was done to examine the level of apoptosis. Caspase-3 activity was expressed as % toxicity. Results are expressed as mean±SE from at least three independent experiments. % toxicity is calculated as: (s.a.of Aβ-/LBA-/SP-treated−s.a.control)÷(s.a.Aβ-treated−s.a.control). […] The unit of concentration of SP600125 was converted from […] to μg/ml for the purpose of comparison with LBA. […] The toxicity was 100% when using SP600125 at more than 20 μM (data not shown). SP600125 was effective from 1.1 μg/ml to 4.4 μ/ml; the range is very narrow when compared with that of LBA.
(§1) We separated different fractions by ion-exchange chromatography. Activity of caspase-3 served as an index for neuronal apoptosis. […] The biochemical analysis of caspase-3 activity was confirmed by morphological examination (FIG. 17). Upon exposure to Aβ peptide, neurites were broken and neurons were undergoing apoptosis.
For apoptosis analysis, the activity of caspase-3 serves as an index for neuronal apoptosis. […] A hundred microgram per […] exerted a nearly 100% neuroprotective effects (FIG. 20).

[1] = system: neurons exposed to Aβ25-35 peptide; assay: LDH release cytotoxicity assay in neurons exposed to Aβ-peptide; conditions: Aβ25-35 peptide 25 μM alone, 24 h; control 24.7±0.45%; mean±SE
Experimental: To examine the effects of the aqueous extract LBA from Lycium barbarum on Aβ-peptide-induced neurotoxicity, neurons were pretreated with LBA (ranging from 0.1 μg/ml to 500 μg/ml) for 1 hour, followed by a 24-hour exposure to Aβ25-35 peptide (25 μM). For cytotoxicity analysis, the extracellular concentration of LDH was measured. […] For the control group, the release of LDH representing natural neuronal death was 24.7±0.45% of the total LDH release. Neurons exposed to Aβ-peptide increased the release of LDH to 38.0±0.92%.
The effects of the basic extract LBB from Lycium barbarum on Aβ-peptide-induced neurotoxicity were also investigated using the same approaches as for LBA. For cytotoxicity analysis, the extracellular concentration of LDH was measured.

caspase-2 = assay: colorimetric caspase-2 activity assay in neurons exposed to Aβ-peptide; conditions: Aβ-peptide alone
Description: Caspase-2 is an important index for neuronal apoptosis for β-amyloid peptide neurotoxicity. It has been reported that Aβ-peptide triggered activation of caspase-2. […] Therefore, we used the colorimetric method to determine caspase-2 activity. For caspase-2 activity, the trend was similar to that of caspase-3. Neurons exposed to Aβ-peptide triggered a 1.6-fold increase in caspase-2 activity.
Caspase-2 is an important index for neuronal apoptosis for β-amyloid peptide neurotoxicity. For caspase-2 activity, the trend was similar to that of caspase-3. We also used colorimetric method to determine caspase-2 activity.

[2] = system: neurons exposed to Aβ peptide; assay: morphological changes of neurons exposed to Aβ-peptide; conditions: LBA 100 μg/ml, LBB 500 μg/ml, heparin 1 μM; 1 h, then Aβ peptide 25 μM 24 h
Experimental: Since LBA and LBB contain both carbohydrate and amino acid, we use heparin to make a comparison of their protective effects. Neurons were pre-incubated with either heparin (1 μM), LBA (100 μg/ml) or LBB (500 μg/ml) for 1 hour, followed by a 24-hour exposure to Aβ peptide (25 μM). The morphology of neurons after different treatments is shown in FIG. 12, in which (A) Control, (B) Aβ-peptide alone, (C) LBA (100 μg/ml), (D) LBA (100 μg/ml)+Aβ, (E) LBB (500 μg/ml), (F) LBB (500 μg/ml)+Aβ, (G) Heparin (1 μM) and (H) Heparin (1 μM)+Aβ. […] In B, neurons treated with Aβ-peptide for 24 hours undergo apoptosis, as shown by the destruction of the fine neurite network. […] G and H were neurons pre-incubated with heparin, and then without and with Aβ-peptide exposure. […] Based on the morphology of neurons, the mode of neuroprotection of LBA and LBB is somewhat different to that of heparin.
as §1

Question: Which caspase-3 activity (caspase-3; Aβ-peptide treated group, no extract) does the source give for “Aβ-peptide: β-amyloid peptide fragment 25-35 used at 25 μM as the neurotoxic challenge (GSNKGAIIGLM; Amyloid-beta protein 42; UniProt P05067 696-706, looked up, fragment)” here?
Answer: 2.13 fold

Question: What about the “release of LDH, percentage of total LDH release” value [1] of the same compound?
Answer: 38.0±0.92%

Question: And the caspase-2 activity (caspase-2)?
Answer: 1.6 fold

Question: [Cl-].[Li+] [LiCl, Lithium Chloride] was tested. Which “caspase-3 activity as percent toxicity” value (caspase-3; 850 μ/ml (20 mM), 1 h pretreatment, Aβ25-35 25 μM 24 h, lowest value) did it give?
Answer: 8.5%

Question: What about the “toxicity to neurons (caspase-3 percent toxicity)” value (caspase-3; about 85 μg/ml (2 mM), Aβ25-35 25 μM 24 h) of the same compound?
Answer: toxic to neurons

Question: Which “caspase-3 activity as % toxicity” value (caspase-3; 1.1 μg/ml (5 μM), 1 h pretreatment, Aβ-peptide 25 μM 16 h) does the source give for Oc1c2ccccc2c2c3c(cccc13)N=N2 [SP600125] here?
Answer: 23.8%

Question: What about the “caspase-3 activity as % toxicity” value (caspase-3; 4.4 μg/ml (20 μM), 1 h pretreatment, Aβ-peptide 25 μM 16 h) of the same compound?
Answer: 69.3%

Question: What about the “caspase-3 activity as % toxicity” value (caspase-3; more than 20 μM, data not shown) of the same compound?
Answer: 100%

Question: How did the “morphology of neurons after pre-incubation and Aβ peptide” value [2] turn out when heparin was run?
Answer: elongated neurons
